Measurements taken from patent US20020032228A1 (priority 2000, published 2002).
“Also recorded” adds a separate entry of the source. Read-outs that look alike come from different tables or passages of the source.

What was measured:
[1] = system: mouse intestinal loops challenged with cholera toxin; type: in vivo
Adenylate Cyclase = Adenylate Cyclase (Bordetella pertussis, UniProt P0DKX7); assay: biochemical; type: biochemical
physchem = settings: pH 5.5
CHO cells = type: cell-based, Chinese hamster
[2] = 168 h, pH 5.5
[3] = system: mouse intestinal loops challenged with cholera toxin; type: in vivo; settings: 6 hour
Xenopus laevis epidermis = type: cell-based
[4] = enzyme 4.6 nmoles, imidazole 2.7 mmoles, PGE2-Histidine adduct 52 μmoles, celecoxib 0.52 mmoles

Adenylate Cyclase, sequence (P0DKX7 whole entry, looked up): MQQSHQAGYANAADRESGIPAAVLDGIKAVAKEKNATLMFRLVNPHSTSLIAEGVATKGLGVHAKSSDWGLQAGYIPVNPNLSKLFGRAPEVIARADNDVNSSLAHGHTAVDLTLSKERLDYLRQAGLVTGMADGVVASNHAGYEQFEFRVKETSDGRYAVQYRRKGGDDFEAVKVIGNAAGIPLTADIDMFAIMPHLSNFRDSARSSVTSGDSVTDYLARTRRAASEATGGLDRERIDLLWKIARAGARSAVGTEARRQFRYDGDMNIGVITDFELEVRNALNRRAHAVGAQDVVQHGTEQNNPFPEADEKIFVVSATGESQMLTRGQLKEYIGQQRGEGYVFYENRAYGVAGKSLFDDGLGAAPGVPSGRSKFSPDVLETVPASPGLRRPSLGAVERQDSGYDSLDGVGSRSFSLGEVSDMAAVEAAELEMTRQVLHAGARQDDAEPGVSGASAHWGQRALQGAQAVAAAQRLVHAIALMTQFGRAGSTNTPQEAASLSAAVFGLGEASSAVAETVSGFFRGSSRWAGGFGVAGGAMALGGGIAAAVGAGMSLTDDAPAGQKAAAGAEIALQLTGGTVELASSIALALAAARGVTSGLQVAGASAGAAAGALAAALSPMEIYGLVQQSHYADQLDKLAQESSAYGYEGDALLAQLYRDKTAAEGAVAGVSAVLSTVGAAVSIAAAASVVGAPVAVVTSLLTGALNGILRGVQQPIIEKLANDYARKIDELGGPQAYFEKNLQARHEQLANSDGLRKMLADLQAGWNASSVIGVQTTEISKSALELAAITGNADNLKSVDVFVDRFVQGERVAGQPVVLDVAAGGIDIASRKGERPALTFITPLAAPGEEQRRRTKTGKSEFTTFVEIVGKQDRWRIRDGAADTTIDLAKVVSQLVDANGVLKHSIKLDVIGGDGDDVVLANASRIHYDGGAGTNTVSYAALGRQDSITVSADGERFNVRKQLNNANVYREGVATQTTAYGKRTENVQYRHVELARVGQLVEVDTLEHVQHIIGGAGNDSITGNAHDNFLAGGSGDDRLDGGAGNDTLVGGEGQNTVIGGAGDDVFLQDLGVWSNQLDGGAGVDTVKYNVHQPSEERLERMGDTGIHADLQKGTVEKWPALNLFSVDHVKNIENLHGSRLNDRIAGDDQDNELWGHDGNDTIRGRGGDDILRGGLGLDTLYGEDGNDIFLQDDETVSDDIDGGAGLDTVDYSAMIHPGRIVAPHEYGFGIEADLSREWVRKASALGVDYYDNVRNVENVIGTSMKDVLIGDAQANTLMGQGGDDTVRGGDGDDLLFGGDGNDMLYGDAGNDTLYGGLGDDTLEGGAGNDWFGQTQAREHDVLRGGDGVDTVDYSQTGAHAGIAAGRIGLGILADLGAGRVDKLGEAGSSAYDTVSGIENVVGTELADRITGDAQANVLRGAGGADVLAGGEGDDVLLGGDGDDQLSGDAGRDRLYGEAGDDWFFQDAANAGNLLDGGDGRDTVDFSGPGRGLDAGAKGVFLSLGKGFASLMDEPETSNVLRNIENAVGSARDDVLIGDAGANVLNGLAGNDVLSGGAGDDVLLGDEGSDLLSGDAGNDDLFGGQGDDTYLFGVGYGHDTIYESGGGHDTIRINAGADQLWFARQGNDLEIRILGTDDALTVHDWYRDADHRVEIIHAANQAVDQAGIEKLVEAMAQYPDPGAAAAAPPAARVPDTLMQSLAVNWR

Molecule: Cc1ccc(-c2cc(C(F)(F)F)nn2-c2ccc(S(N)(=O)=O)cc2)cc1 [celecoxib, reference compound]
- CT-induced fluid accumulation in murine intestinal loops ([1]; 6 hours): significantly reduced
- IC50 (Adenylate Cyclase): 20 µM
- inhibition of adenylate cyclase enzyme activity (FIG. 12) (Adenylate Cyclase; [4]): inhibit adenylate cyclase enzyme activity

Molecule: CS(=O)(=O)c1ccc(C2=C(c3ccccc3)C(=O)OC2)cc1 [rofecoxib, reference compound]
- cholera toxin-induced secretion ([1]; mouse, in vivo): does not inhibit cholera toxin-induced secretion
- inhibition of adenylate cyclase enzyme activity (FIG. 12) (Adenylate Cyclase; [4]): absence of adenylate cyclase inhibition

Molecule: c1c[nH]cn1 [imidazole]
- IC50 (Adenylate Cyclase): 1570 µM
- inhibition of adenylate cyclase enzyme activity (FIG. 12) (Adenylate Cyclase; [4]): inhibit adenylate cyclase enzyme activity
- Ratio Enzyme:Drug, molar concentration required to inhibit Adenylate Cyclase (Adenylate Cyclase; enzyme 0.46 nm): 0.46 nm:1.57 mm

Molecule: CC(=O)N[C@@H](CS)C(=O)O [NAC, N-acetyl-L-cysteine, reference compound]
- intestinal fluid accumulation ([1]; mouse, in vivo): blocked all intestinal fluid accumulation
- protection against CT-induced fluid secretion in small intestinal loops ([1]; mouse, in vivo, ip, pH 7): no protective effect

Molecule: CCCCCC(O)/C=C/[C@H]1C(n2ccnc2)CC(=O)[C@H]1C/C=C\CCCC(=O)O (some centres unmarked) [PGE2-imidazole, 11-deoxy-11-imidazolyl-PGE2]
- CT-induced fluid accumulation ([1]; 6 hour): significantly reduced
- fluid loss following CT challenge ([1]; mouse, in vivo): completely blocked
- inhibition of the CT fluid response ([1]; mouse, in vivo): virtually complete inhibition
- half-life (physchem): ~60 h
- inhibition of CT-induced cAMP formation (CHO cells): significant inhibition; also recorded: reduces cAMP levels
- reduction of cAMP levels (CHO cells; 0.5 μg/ml): approximately 50%
- adduct remaining [2]: 10%
- cAMP levels in the intestinal loop fluids [3]: markedly reduced

Molecule: COc1ccc(-n2nc(C(F)(F)F)cc2-c2ccc(Cl)cc2)cc1 [SC560, reference compound]
- cholera toxin-induced fluid secretion ([1]; mouse, in vivo, sc): inhibits cholera toxin-induced fluid secretion

Molecule: prostaglandin E2-histidine [PGE2-histidine]
- inhibition of the CT fluid response ([1]; mouse, in vivo): virtually complete inhibition
- inhibition of adenylate cyclase enzyme activity (FIG. 12) (Adenylate Cyclase): inhibit adenylate cyclase enzyme activity
- IC50 (Adenylate Cyclase; read-out: IC50 dose inhibiting 50% of the enzyme activity): 21.5 µM

Molecule: N[C@@H](Cc1c[nH]cn1)C(=O)O [L-histidine]
- Difference in ISC between PGE2 and PGE2+L-histidine (Xenopus laevis epidermis): 78±21%
- ISC, % of control (Xenopus laevis epidermis): 30±9 % of control
- basal and PGE2-induced sodium transport (Xenopus laevis epidermis): reduced both basal and PGE2-induced sodium transport
- fluid accumulation in mouse intestinal loops challenged with cholera toxin ([1]; 6 hours): as the dose of L-histidine was increased, the amount of fluid accumulation decreased; also recorded: accumulated significantly less fluid
- reduction of fluid accumulation, statistical significance ([1]; 6 hours): statistical significance (P<0.05)
- PGE2- and CT-stimulated cAMP formation in CHO cells (CHO cells): reduced the capacity of both PGE2 and CT to stimulate cAMP formation

Molecule: CCCCC[C@H](O)/C=C/C1=C(C/C=C\CCCC(=O)O)C(=O)CC1 [PGB2, reference compound]
- CT-induced fluid accumulation in murine intestinal loops ([1]; mouse, in vivo): reduce CT-induced fluid accumulation in murine intestinal loops with lower potency

Molecule: CCCCC[C@H](O)/C=C/[C@H]1C=CC(=O)[C@@H]1C/C=C\CCCC(=O)O [PGA2, reference compound]
- CT-induced fluid accumulation in murine intestinal loops ([1]; mouse, in vivo): reduce CT-induced fluid accumulation in murine intestinal loops with lower potency

Molecule: CCCCCC(O)/C=C/[C@H]1C(O)CC(=O)[C@H]1C/C=C\CCCC(=O)O (some centres unmarked) [PGE2, reference compound]
- increase of steady-state Na+-dependent short circuit current (ISC) (Xenopus laevis epidermis): 14%
- maximum PGE2-induced change in ISC (Xenopus laevis epidermis; n=5): 18±3%
